“Also recorded” adds a separate entry of the source. Counter-ions that a name gives are not always drawn.
Assays:
[1] = molecular target: T1, presynaptic α2-adrenoreceptor (rat vas deferens) (Rattus norvegicus, UniProt P22909); assay: Presynaptic α-adrenoreceptor antagonism vs clonidine in isolated rat vas deferens (0.1 Hz stimulation); format: cell-based
T1 construct: Pre- and postsynaptic α-adrenoreceptor antagonism in isolated tissue experiments; from tissue; host or cells: isolated rat vas deferens
T1 sequence (P22909 1-465): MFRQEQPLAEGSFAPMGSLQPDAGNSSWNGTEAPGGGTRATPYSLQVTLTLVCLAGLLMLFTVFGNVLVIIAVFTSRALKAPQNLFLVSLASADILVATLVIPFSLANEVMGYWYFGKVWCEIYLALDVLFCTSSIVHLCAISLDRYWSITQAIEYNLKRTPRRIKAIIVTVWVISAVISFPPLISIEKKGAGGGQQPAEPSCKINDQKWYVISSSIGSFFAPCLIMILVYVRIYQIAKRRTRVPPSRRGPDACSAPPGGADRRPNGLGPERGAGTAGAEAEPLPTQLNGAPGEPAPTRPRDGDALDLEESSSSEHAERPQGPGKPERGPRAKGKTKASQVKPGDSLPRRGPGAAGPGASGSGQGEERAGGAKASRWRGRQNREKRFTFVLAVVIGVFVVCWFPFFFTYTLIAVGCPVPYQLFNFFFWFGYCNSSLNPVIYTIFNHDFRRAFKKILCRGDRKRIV
Text: (§1) This in vitro model is particularly useful as an initial screen for studying presynaptic activity in isolation since the physiological nature of the vas deferens tissue is such that the post synaptic receptors located therein are particularly inaccessible to exogenous agents. In consequence an alternative tissue, the rat anococcygeus muscle is used to establish postsynaptic α-adrenoreceptor activity. Antagonism of noradrenaline contractions is used to determine pA2 values at postsynaptic α-adrenoreceptors. The ratio of presynaptic α-adrenoreceptor antagonism (versus clonidine on the rat vas deferens) to postsynaptic α-adrenoreceptor antagonism (versus noradrenaline contractions on the rat anococcygeus muscle) is used to assess adrenoreceptor selectivity.

[2] = system: postsynaptic α-adrenoreceptors (rat anococcygeus muscle); assay: Postsynaptic α-adrenoreceptor antagonism vs noradrenaline contractions in isolated rat anococcygeus muscle; format: cell-based; conditions: mean of minimum 5 experiments, "<" means inactive at a concentration which would have given the pA indicated
Text: as §1

[3] = system: presynaptic α-adrenoreceptor; assay: Presynaptic α-adrenoreceptor antagonism in the pithed rat: vas deferens, intravenous activity; format: in vivo; conditions: for i.v. dose of antagonist causing 50% reversal of clonidine block on vas deferens: pithed rat, clonidine 100 μg/kg i.v., cumulative i.v. dosing, mean of minimum 4 rats
Protocol: This test model extends the evaluation of presynaptic α-adrenoreceptor antagonism versus clonidine on the rat vas deferens to the in vivo situation. Blood pressure and stimulation induced contractions of the vas deferens were monitored in pithed rats using the method of Brown, J., Doxey, J. C., Handley, S. and Virdee, N., Recent Advances in the Pharmacology of Adrenoceptors, Elsevier North Holland, 1978. Clonidine (100 μg/kg, i.v.) causes a prolonged pressor response and a prolonged inhibition of vas deferens contractions. The test drugs were injected intravenously in a cumulative dosing schedule and their abilities to reverse the inhibition of hypogastric nerve stimulation reflected their presynaptic antagonism.

[4] = system: presynaptic α-adrenoreceptor; assay: Presynaptic α-adrenoreceptor antagonism in the pithed rat: vas deferens, oral activity; format: in vivo; conditions: 1.0 and 5.0 mg/kg
Text: Thirty minutes after oral administration, the rats were pithed so as to allow electrically-induced contractions of the vas deferens to be studied in situ.

[5] = system: postsynaptic α-adrenoreceptor; assay: Antagonism of clonidine postsynaptic effects (blood pressure increases) after oral dosing, pithed rat; format: in vivo
[6] = system: presynaptic α-adrenoreceptor; assay: Reversal of guanabenz block of the anococcygeus muscle of the pithed rat, intravenous; format: in vivo; conditions: for Intravenous dose of antagonist causing 50% reversal of guanabenz block of anococcygeus muscle: pithed rat, guanabenz acetate 30 μg/kg i.v.
DOCA hypertensive rats = assay: Effect on blood pressure and heart rate of conscious DOCA hypertensive rats; format: in vivo, rat
Text: Results are given in Table 5 in terms of peak percentage fall in B.P.

[7] = system: clonidine-induced hypothermia; assay: Antagonism of clonidine-induced hypothermia in mice; format: in vivo
[8] = system: postsynaptic α-adrenoreceptor; assay: Pressor responses in the pithed rat on intravenous administration; format: in vivo; conditions: 1-10 mg/kg, i.v.
[9] = system: presynaptic α-adrenoreceptor; assay: Reversal of clonidine inhibition of the anococcygeus muscle of the pithed rat, intravenous; format: in vivo; conditions: 0.3-1.0 mg/kg, i.v.; 1 Hz stimulation
Text: In contrast to the rat vas deferens, both the pre- and postsynaptic adrenoreceptors of the rat anococcygeus muscle are readily accessible to exogenously applied agents and therefore this test can be used to distinguish selective presynaptic α-adrenoreceptor antagonists from non-selective agents. Contractions of the rat anococcygeus muscle induced by low frequency (1 Hz) electrical stimulation of spinal sympathetic outflow are inhibited by low doses of clonidine. Only selective presynaptic α-adrenoreceptor antagonists will reverse the inhibitory effects of clonidine.

## c1ccc2c(c1)OCC(C1=NCCN1)O2 (stereo not drawn) [Compound A, 2-[2-(1,4-Benzodioxanyl)]-2-imidazoline hydrochloride]
[1]; Table 1
  presynaptic α-adrenoreceptor antagonist potency, rank among compounds studied: the most potent presynaptic α-adrenoreceptor antagonist
[2]
  Postsynaptic antagonism pA2 vs Noradrenaline (anococcygeus): 6.2
[3]; pithed rat vas deferens, i.v., Table 2
  presynaptic α-adrenoreceptor antagonist potency, rank among compounds studied: clearly the most potent presynaptic α-adrenoreceptor antagonist of those studied
[3]
  i.v. dose of antagonist causing 50% reversal of clonidine block on vas deferens: 0.009 mg/kg
[4]
  antagonism of the presynaptic action of clonidine (in words): dose-dependent competitive antagonism
[5]; 1.0 mg/kg p.o.
  inhibition of the clonidine postsynaptic effects (blood pressure increases): No inhibition
[5]; 5.0 mg/kg p.o.
  inhibition of the clonidine postsynaptic effects (blood pressure increases): some antagonism was observed
[6]; pithed rat anococcygeus, i.v.
  presynaptic α-adrenoreceptor antagonist potency, rank among compounds studied: the most potent presynaptic α-adrenoreceptor antagonist studied
[6]
  Intravenous dose of antagonist causing 50% reversal of guanabenz block of anococcygeus muscle: 0.021 mg/kg
DOCA hypertensive rats; 1.0 mg/kg, oral
  peak percentage fall in B.P.: -4%
DOCA hypertensive rats; 1.0 mg/kg, oral, hydrochloride
  blood pressure effect (in words): did not significantly alter blood pressure; also recorded: does not possess antihypertensive activity
DOCA hypertensive rats; 5.0 mg/kg, oral
  peak percentage fall in B.P.: -28%
DOCA hypertensive rats; 20.0 mg/kg, oral
  peak percentage fall in B.P.: -39%
DOCA hypertensive rats; 5.0 and 20.0 mg/kg, oral, hydrochloride
  mean arterial blood pressure effect (in words): dose-related falls in mean arterial blood pressure
DOCA hypertensive rats; three doses (1.0, 5.0 and 20.0 mg/kg), oral
  heart rate effect (in words): No significant effect on heart rate
[7]; 0.1-1.0 mg/kg, i.v.
  reversal of clonidine-induced hypothermia (in words): statistically significant dose-related reversal

## CC1(C2=NCCN2)Oc2ccccc2O1 [Compound B, 2-[2-(2-methyl-1,3-benzodioxyl)]-2-imidazoline hydrochloride]
[1]; isolated rat vas deferens, 0.1 Hz, mean of minimum 5 experiments, "<" means inactive at a concentration which would have given the pA indicated, read-out: Presynaptic antagonism pA2 vs Clonidine (vas deferens) (converted)
  Kb: 0.631 µM
[1]; presynaptic antagonism (vs clonidine, vas deferens) to postsynaptic antagonism (vs noradrenaline, anococcygeus)
  Pre/postsynaptic ratio: > 67
[2]
  Postsynaptic antagonism pA2 vs Noradrenaline (anococcygeus): < 4.4
[3]; cumulative i.v. dose 14.4 mg/kg
  maximum reversal of the inhibitory effects of clonidine on hypogastric nerve stimulation: 66%
[3]
  i.v. dose of antagonist causing 50% reversal of clonidine block on vas deferens: 5.60 mg/kg
DOCA hypertensive rats; 1.0 mg/kg, oral
  blood pressure effect (in words): significant antihypertensive effect
  peak percentage fall in B.P.: -15%
DOCA hypertensive rats; 5.0 mg/kg, oral
  peak percentage fall in B.P.: -25%
DOCA hypertensive rats; 20.0 mg/kg, oral
  peak percentage fall in B.P.: -14%
DOCA hypertensive rats; 20 mg/kg, p.o. versus 5 mg/kg, p.o.
  maximum hypotensive effect following 20 mg/kg (in words): less than that produced by 5 mg/kg, p.o. compound B
DOCA hypertensive rats; 1-20 mg/kg, p.o.
  dose-relation of the falls in blood pressure (in words): not dose-related
[8]
  pressor responses / postsynaptic α-adrenoreceptor agonist activity (in words): pressor responses in the pithed rat were seen
[7]; 30 mg/kg i.v.
  effect on clonidine-induced hypothermia (in words): potentiated the clonidine-induced hypothermia
[7]; 1-10 mg/kg, i.v.
  reversal of clonidine-induced hypothermia (in words): partial reversal
  reversal of clonidine-induced hypothermia compared with vehicle (significance, in words): not significantly different from animals treated with vehicle

## CN1CCN2c3ccccc3Cc3ccccc3C2C1 (stereo not drawn) [Mianserin HCl]
[3]
  i.v. dose of antagonist causing 50% reversal of clonidine block on vas deferens: > 4.4 mg/kg

## CN1CCN2c3ccccc3Cc3ccccc3C2C1 (stereo not drawn) [Mianserin]
[3]; cumulative i.v. dose 4.4 mg/kg
  maximum reversal of the inhibitory effects of clonidine on hypogastric nerve stimulation: 36%

## Cc1ccc(N(CC2=NCCN2)c2cccc(O)c2)cc1 [Phentolamine mesylate]
[3]
  i.v. dose of antagonist causing 50% reversal of clonidine block on vas deferens: 0.12 mg/kg
[6]
  Intravenous dose of antagonist causing 50% reversal of guanabenz block of anococcygeus muscle: > 1.4 mg/kg

## Cc1ccc(N(CC2=NCCN2)c2cccc(O)c2)cc1 [Phentolamine]
[6]; cumulative i.v. dose of 1.4 mg/kg
  presynaptic α-adrenoreceptor antagonist activity (in words): devoid of presynaptic α-adrenoreceptor antagonist activity
DOCA hypertensive rats; 1.0 mg/kg, oral
  blood pressure effect (in words): reduced blood pressure
  peak percentage fall in B.P.: -16%
DOCA hypertensive rats; 5.0 mg/kg, oral
  peak percentage fall in B.P.: -24%
DOCA hypertensive rats; 20 mg/kg, oral
  heart rate effect (in words): reflexly elevated
DOCA hypertensive rats; 20.0 mg/kg, oral
  peak percentage fall in B.P.: -41%
DOCA hypertensive rats; two smaller doses (1.0 and 5.0 mg/kg), oral
  heart rate effect (in words): not greatly affected

## COC(=O)[C@@H]1[C@H]2C[C@H]3c4[nH]c5ccccc5c4CCN3C[C@@H]2CC[C@@H]1O [Yohimbine HCl]
[3]
  i.v. dose of antagonist causing 50% reversal of clonidine block on vas deferens: 0.86 mg/kg
[6]
  Intravenous dose of antagonist causing 50% reversal of guanabenz block of anococcygeus muscle: 0.280 mg/kg

## COC(=O)[C@@H]1[C@H]2C[C@H]3c4[nH]c5ccccc5c4CCN3C[C@@H]2CC[C@@H]1O [Yohimbine]
[9]
  reversal of the inhibitory action of clonidine on the anococcygeus muscle: fully reversed

— patent US4818764A, “Imidazoline derivative and method of treating depression therewith” (priority 1980, dated 1989)
